Values belong to the compound of their own block, whether it stands above or below them. Calls of active or inactive are those of the source.
What was measured:
Steroidogenic factor 1 = Steroidogenic factor 1 (Homo sapiens, UniProt Q13285); experiment: Counterscreen for inverse agonists of the liver receptor homolog-1 (LRH-1; NR5A2): Luminescence-based cell-based high throughput dose response assay to identify inverse agonists of the Steroidogenic Factor 1 Nuclear Receptor (SF1; NR5A1).; format: functional
[1] = molecular target: Nuclear receptor subfamily 5 group A member 2 (Homo sapiens, UniProt O00482); format: functional, cell-based;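 also: HEK293T cells transfected with LRH-1 and a StAR promoter luciferase reporter; potency for inhibitors that lower LRH-1 driven reporter light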
[2] = nonselective StAR promoter luciferase inhibitors – cell-based, luminescence, luciferase reporter, counter-screen for LRH-1 inverse agonist project, dose response (AID 651969); format: functional
[3] = reduction of Shn3 3'UTR-driven luciferase in osteoblasts – cell-based, Clone20 osteoblasts, firefly luciferase, cherry-picked, dose response (AID 624132); format: functional;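 also: firefly luciferase luminescence from reporter carrying the Shn3 3'UTR in osteoblasts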
[4] = toxicity toward HepG2 liver cells – cell-based, plate reader, cherry-pick, antagonist series, cytotoxicity control, dose response (AID 743416); format: functional
[5] = loss of viability in HepG2 cells – cell-based, CellTiter-Glo, cherry-picked, cytotoxicity control for Shn3 inhibitor project, dose response (AID 624134); format: functional
[6] = viability loss in HEK293 cells – cell-based, plate reader, cherry-picked samples, cytotoxicity control, dose response (AID 743446); format: functional
[7] = non-specific 3'UTR reporter inhibition in Clone20-Shn3RL – cell-based, Renilla luciferase, cherry-picked, counter-screen for Shn3 inhibitor project, dose response (AID 624133); format: functional
[8] = blockade of melanocortin 4 receptor signaling – cell-based, plate reader, cherry pick, counter-screen for LGR2 antagonist project, dose response (AID 743444); format: functional;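 also: transfected HEK 293 cells stimulated with alpha-MSH peptide; potency of inhibitors of the alpha-MSH evoked signal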
[9] = A549 cell cytotoxicity, dose response, cytotoxicity control, plate reader, cherry-pick, antagonist series (AID 743412); format: functional, cell-based
[10] = blockers of bursicon-stimulated LGR2 cAMP reporter – cell-based, HEK293, CRE-luciferase reporter, cherry pick, set 2, dose response (AID 743343); format: functional;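 also: transfected cells were stimulated with diluted bursicon conditioned medium after compound addition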
[11] = molecular target: T1, Rac GTPase-activating protein 1 (Homo sapiens, UniProt Q9H0H5); experiment: blockers of MgcRacGAP-driven Rac1 GTP hydrolysis – biochemical, ADP Hunter fluorescence, primary and confirmatory, confirmation (AID 624330); format: functional
T1 sequence (Q9H0H5 whole entry): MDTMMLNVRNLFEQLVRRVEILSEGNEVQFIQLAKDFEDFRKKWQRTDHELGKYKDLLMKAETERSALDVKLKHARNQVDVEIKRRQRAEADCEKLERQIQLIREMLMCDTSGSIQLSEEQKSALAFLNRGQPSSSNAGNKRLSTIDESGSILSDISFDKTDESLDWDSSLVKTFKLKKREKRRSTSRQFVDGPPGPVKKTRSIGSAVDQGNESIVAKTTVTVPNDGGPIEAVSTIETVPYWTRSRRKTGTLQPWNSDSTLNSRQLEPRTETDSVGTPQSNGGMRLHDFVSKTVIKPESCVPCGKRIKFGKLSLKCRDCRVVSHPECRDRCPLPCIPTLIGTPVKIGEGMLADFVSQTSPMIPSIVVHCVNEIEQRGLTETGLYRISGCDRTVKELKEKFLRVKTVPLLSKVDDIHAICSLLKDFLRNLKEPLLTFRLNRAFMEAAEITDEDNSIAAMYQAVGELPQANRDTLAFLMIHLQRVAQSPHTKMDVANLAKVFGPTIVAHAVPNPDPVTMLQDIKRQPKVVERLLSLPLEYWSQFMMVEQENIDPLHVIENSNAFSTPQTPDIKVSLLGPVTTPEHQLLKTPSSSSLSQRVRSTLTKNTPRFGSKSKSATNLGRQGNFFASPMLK

[12] = viability loss in HeLa cells – cytotoxicity control for MgcRacGAP inhibitor project, dose response (AID 624300); format: functional
[13] = viability loss in HEK293T cells – cell-based, cherry-picks, cytotoxicity control for HIV Vif inhibitor project, dose response (AID 652208); format: functional
[14] = molecular target: T2, Hepatocyte nuclear factor 4-alpha (Homo sapiens, UniProt P41235); format: functional, cell-based;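 also: biochemical luminescence-based dose-response counterscreen measuring inhibition of HNF4 dimerization, run alongside a screen for blockers of ABHD5–perilipin-5 interaction; split luciferase complementation of HNF4 fusion proteins in cell lysate measuring dimerization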
T2 sequence (P41235 whole entry): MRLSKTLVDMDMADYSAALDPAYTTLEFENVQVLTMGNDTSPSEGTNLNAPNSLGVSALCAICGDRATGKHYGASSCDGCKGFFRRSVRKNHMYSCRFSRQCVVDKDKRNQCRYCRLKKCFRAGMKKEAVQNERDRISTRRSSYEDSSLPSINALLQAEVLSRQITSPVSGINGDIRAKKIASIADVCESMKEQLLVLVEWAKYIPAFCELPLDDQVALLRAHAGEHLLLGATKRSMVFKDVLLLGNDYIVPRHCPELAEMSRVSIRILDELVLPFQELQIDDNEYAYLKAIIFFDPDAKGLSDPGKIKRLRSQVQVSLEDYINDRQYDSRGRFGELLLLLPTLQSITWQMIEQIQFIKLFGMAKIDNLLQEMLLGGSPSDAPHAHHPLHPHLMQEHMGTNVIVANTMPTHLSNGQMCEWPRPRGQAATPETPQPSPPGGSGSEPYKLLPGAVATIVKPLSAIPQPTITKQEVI

[15] = molecular target: T3, Corticotropin-releasing factor receptor 2/Corticotropin-releasing factor-binding protein (Homo sapiens, UniProt P24387+Q13324); experiment: activators of CRF receptor 2 with binding protein – uHTS hits, confirmation (AID 602473); format: functional; details: read-out: EC50_Mean
T3 sequence (Q13324 whole entry): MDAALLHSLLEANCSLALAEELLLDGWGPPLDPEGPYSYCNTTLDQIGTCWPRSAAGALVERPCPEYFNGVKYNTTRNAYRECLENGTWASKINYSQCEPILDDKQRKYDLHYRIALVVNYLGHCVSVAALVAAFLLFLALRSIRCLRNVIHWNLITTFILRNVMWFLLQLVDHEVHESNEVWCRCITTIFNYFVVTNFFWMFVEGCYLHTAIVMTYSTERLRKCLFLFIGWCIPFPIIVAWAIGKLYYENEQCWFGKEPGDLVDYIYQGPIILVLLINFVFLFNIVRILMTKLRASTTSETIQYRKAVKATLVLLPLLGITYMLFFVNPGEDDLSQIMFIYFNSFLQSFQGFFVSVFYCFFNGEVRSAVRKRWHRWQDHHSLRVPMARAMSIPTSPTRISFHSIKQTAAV
T3 sequence (P24387 whole entry): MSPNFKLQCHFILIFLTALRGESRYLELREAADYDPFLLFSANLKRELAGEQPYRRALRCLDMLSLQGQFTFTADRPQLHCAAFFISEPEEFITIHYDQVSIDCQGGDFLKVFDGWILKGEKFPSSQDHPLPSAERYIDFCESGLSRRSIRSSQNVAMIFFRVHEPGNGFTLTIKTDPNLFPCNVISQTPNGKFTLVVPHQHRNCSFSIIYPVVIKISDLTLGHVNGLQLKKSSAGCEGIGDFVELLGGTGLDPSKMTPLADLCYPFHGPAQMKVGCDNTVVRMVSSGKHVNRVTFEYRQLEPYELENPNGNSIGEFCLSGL

[16] = molecular target: T3, Corticotropin-releasing factor receptor 2/Corticotropin-releasing factor-binding protein; experiment: Dose Response confirmation of uHTS hits for small molecule antagonists of the CRF-binding protein and CRF-R2 receptor complex.; format: functional; details: read-out: IC50_Mean
[17] = blockers of CRF-binding protein–CRF-R2 complex – cell-based, uHTS hits, 384-well, dose response (AID 651639); format: functional, Homo sapiens; details: read-out: IC50_Mean

Chain of Nuclear receptor subfamily 5 group A member 2 (O00482 whole entry): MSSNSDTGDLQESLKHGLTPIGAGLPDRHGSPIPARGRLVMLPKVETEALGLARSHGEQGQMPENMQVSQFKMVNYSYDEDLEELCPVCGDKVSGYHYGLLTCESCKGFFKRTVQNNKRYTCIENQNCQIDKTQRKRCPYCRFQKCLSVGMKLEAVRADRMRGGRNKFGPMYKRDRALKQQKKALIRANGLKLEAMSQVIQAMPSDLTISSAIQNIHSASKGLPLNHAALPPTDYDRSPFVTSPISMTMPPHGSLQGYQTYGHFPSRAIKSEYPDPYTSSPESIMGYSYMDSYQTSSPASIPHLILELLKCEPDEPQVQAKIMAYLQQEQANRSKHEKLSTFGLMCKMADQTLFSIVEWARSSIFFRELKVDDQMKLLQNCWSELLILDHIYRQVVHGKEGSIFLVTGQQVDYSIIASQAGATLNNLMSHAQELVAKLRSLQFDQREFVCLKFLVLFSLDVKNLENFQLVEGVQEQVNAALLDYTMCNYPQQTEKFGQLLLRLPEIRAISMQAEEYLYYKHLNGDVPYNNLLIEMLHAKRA
Chain of Steroidogenic factor 1 (Q13285 whole entry): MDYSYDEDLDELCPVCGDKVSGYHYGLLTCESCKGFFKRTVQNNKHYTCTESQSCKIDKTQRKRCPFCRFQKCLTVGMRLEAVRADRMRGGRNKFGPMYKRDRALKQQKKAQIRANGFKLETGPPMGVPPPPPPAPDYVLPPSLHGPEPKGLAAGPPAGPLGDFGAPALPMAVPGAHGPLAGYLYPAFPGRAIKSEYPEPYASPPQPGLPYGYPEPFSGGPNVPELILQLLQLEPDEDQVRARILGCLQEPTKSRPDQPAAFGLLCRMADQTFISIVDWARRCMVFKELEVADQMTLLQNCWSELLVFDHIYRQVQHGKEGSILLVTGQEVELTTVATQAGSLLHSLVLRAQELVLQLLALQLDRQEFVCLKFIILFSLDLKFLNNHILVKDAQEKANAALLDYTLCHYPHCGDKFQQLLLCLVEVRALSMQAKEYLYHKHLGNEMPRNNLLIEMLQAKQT

Structure (SMILES): Cc1cc([N+](=O)[O-])ccc1NC(=O)CSc1nnc(C)n1C
IC50 (Steroidogenic factor 1): 11.9 µM (inactive) | IC50 [1]: 11.9 µM (inactive) | IC50 [2]: 35.8 µM (inactive)

Structure (SMILES): CC(C)c1ccc(NC(=O)Nc2nc(C(N)c3ccccc3)cs2)cc1 (stereo unspecified)
AC50 [3]: 2.48 µM (active) | AC50 [4]: 8.5 µM (active) | AC50 [5]: 13.5 µM (active) | AC50 [6]: 16 µM (active) | AC50 [7]: 15.4 µM (active) | AC50 [8]: 29 µM (active) | AC50 [9]: 7.84 µM (active) | AC50 [10]: 25.5 µM (active)

IC50 [11]: 64.2 µM (active)
Structure (SMILES): COc1cc(/C=N/Nc2nn3cnnc3c3ccccc23)ccc1O
CC50 [12]: 100 µM (active)

Structure (SMILES): O=C(Nc1ccccc1C(=O)Nc1nccs1)c1ccccc1
IC50 (Steroidogenic factor 1): 9.51 µM (active) | IC50 [1]: 9.83 µM (active) | IC50 [2]: 26.4 µM (inactive)

Structure (SMILES): CCOC(=O)N1CCN(c2c(NCc3ccc(Cl)cc3)c(=O)c2=O)CC1
AC50 [13]: > 52 µM (inactive)

IC50 [14]: 6 µM (active)
Structure (SMILES): COc1ccc(OCc2cn(CC(=O)c3ccc(O)cc3)nn2)cc1

EC50 [15]: > 53 µM (inactive) | IC50 [16]: 6.5 µM (active) | IC50 [17]: 9.87 µM (active)
Structure (SMILES): CC(C)(C)OC(=O)N1CCC(c2cc(O)n3ncc(C(=O)NC4CCCC4)c3n2)CC1

Source: ChEMBL document CHEMBL1201862, “PubChem BioAssay data set” (2004)
